Measurements from US12246044B2, “Bacterial and cell compositions for the treatment of colorectal cancer and methods for assessing a prognosis for patients having the same” (priority 2017, dated 2025).

How the values were obtained:
MC38 tumors = test: FMT avatar mice (GF mice colonized with PCAC patient colonic content), MC38, OXA; format: in vivo, C57BL/6J mice; conditions: 12 PCAC patient feces tested
Experimental: (§1) Syngeneic C57BL/6J mice were implanted with 1×10^6 MC38 WT cells subcutaneously and treated intraperitoneally (i.p.) when tumors were 20 to 30 mm^2 in size with 10 mg/kg oxaliplatin or vehicule (PBS). The composition of the commensal gut microbiota in the treated and non-treated groups was maintained synchronized by cohousing. Tumor size was routinely monitored every 3 days by means of a caliper.
Frozen fecal samples were thawed and thoroughly vortexed. Large particulate material was allowed to settle by gravity. 200 μl of supernatant was administered in a single dose by oral gavage. Additionally, an extra 100 μl was topically applied onto the fur of each animal. The resulting gnotobiotic mice were maintained in positive pressurized isolators with irradiated food and autoclaved water. […]
Data analyses and representations were performed either with the statistical environment R, Microsoft Excel (Microsoft Co., Redmont, WA, USA) or Prism 5 (GraphPad, San Diego, CA, USA). Tumor growth was analysed with dedicated software (https://kroemerlab.shinyapps.io/TumGrowth). Briefly, data was subjected to a linear mixed effect modeling applied to log pre-processed tumor surfaces. p-values were calculated by testing jointly whether both tumor growth slopes and intercepts (on a log scale) were different between treatment groups of interests. […]

ileal and colonic IEC = test: Immunohistochemistry of cleaved caspase-3 in colon and ileal mucosae after OXA i.p.; format: in vivo, mice; conditions: 6 h after OXA i.p.; ileal versus colonic IEC
Experimental: Donor mice were treated with oxaliplatin (10 mg/kg) i.p. for 6 h to induce gut cell death. Control animals were treated with vehicle (PBS) alone. The composition of the commensal gut microbiota in the treated and non-treated groups was maintained synchronized by cohousing. At the end of the treatment, mice were euthanized and the ileum was collected to isolate IEC. One million IECs were then injected s.c. into the left flank of the recipient mice. The procedure was repeated once, 7 days later. Tumor challenge was performed on the right flank 7 days after the last immunization, with doses which obtain 100% of tumor incidence in naïve mice, MC38 (1×10^6 cells), MCA205 (0.8×10^6 cells), CT26 (1×10^6 cells) and 4T1 (0.3×10^6 cells).
FFPE gut sections were deparaffinised and rehydrated through a series of graded alcohols and distilled water. Antigen retrieval was performed by pre-treating sections with 0.01 M sodium citrate buffer (pH 6.0, Diapath) for 30 min in a 98° C. water bath. Endogenous peroxidase activity was inhibited by treating sections with 3% […] (#S202386, DAKO) for 10 min. Sections were blocked with IHC/ISH Super Blocking (#PV6122, LeicaBiosystem) for 10 min. […] Peroxidases were detected with Di Amino Benzidine-peroxidase substrate kit (DAKO), and counterstained with Mayer's haematoxylin. […]

ileal mucosae = test: qRT-PCR of immune gene transcripts in ileal mucosae of avatar mice; format: in vivo; conditions: avatar responders compared to avatar non-responders
Experimental: Total RNA from gut biopsies was extracted with RNeasy Mini Kit (Qiagen) and then reverse transcribed into cDNA with the SuperScript III Reverse Transcriptase and the RNaseOUT™ Recombinant Ribonuclease Inhibitor (Life Technologies, Saint Aubin, France), in the presence of random primers (Promega, Charbonnieres, France) and the Deoxynucleoside Triphosphate Set, PCR grade (Roche Diagnostics, Meylan, France). cDNA was analyzed by real-time quantitative PCR (RT-qPCR) with the TaqMan method with TaqMan® Gene Expression Assays using the Universal Master Mix II (Invitrogen) according to the manufacturer's instructions using the 7500 Fast Real Time PCR system (Applied Biosystems). Expression was normalized to the expression of the housekeeping gene of Beta 2 Microglobulin by means of the 2^−ΔCt method.

[1] = tested on: small intestine enteroids; test: OXA treatment of stem cell derived small intestine enteroids in vitro; format: cell-based, C57BL/6J mice; conditions: culminating in calreticulin cell surface exposure, data not shown
Experimental: Crypts were isolated and enriched from the ileum of 8-12 week old C57BL/6J mice as previously described (24) with the following modifications. Briefly, washed pieces of ileum were incubated in crypt chelating buffer (2 mM EDTA in PBS) for 30 minutes on ice. Following the removal of crypt chelating buffer, fragments were vigorously rinsed 3 times with PBS containing 10% FCS and filtered through a 70-μm cell strainer (BD Bioscience). Crypts were pelleted, washed with Advanced DMEM/F12 (ADF) (Invitrogen), resuspended in 1 mL of Matrigel growth factor reduced basement membrane matrix (Corning) and 50 uL drops were pipetted into a 24 well plate. Crypts were overlayed with ADF containing the following: 100 U/mL penicillin G sodium, 100 μg/mL streptomycin sulphate, 2 mM L-glutamine, 10 mM HEPES, 1× N2 supplement, 1× B27 supplement, 50 ng/mL mEGF, 100 ng/mL mNoggin (Peprotech, Hamburg, Germany), N-acetylcysteine (Sigma) (reagents from Invitrogen unless otherwise indicated) and 10% conditioned medium of R-Spondin-1 transfected HEK 293T cells.
IEC suspensions were obtained from enteroids by means of 3 wash dissociation method, as described above. […]

MC38 cancers = test: MC38 tumor model in SPF mice, OXA + anti-PD-1 Abs plus oral gavage of live bacteria; format: in vivo, C57BL/6J mice; conditions: SPF mice (eubiosis), oral gavage of 10^9 cfu live bacteria before and after OXA
Experimental: as §1
PD-1 blockade was performed by i.p. treatment with anti-PD-1 mAbs (RMP1-14; 200 μg/mouse) or respective isotype controls (2A3) (all antibodies from Bioxcell).
Erysipelothrix tonsillarum and Solobacterium moorei were provided by Prof. Ivo Gomperts Boneca, Institut Pasteur, France. Bacteroides fragilis, Alistipes onderdonkii, Erysipelatoclostridium ramosum, Dialister invisus, Paraprevotella clara isolates were isolated in our laboratory from ileal mucus from patients used in vaccination experiments. Species were grown on COS plates in aerobic or an anaerobic atmosphere created using anaerobic generators (Biomerieux) at 37° C. for 24-72 hrs. Colonization of ATB pre-treated or GF C57BL/6J mice was performed by oral gavage with 100 μl of suspension containing 1×10^9 bacteria in PBS. For bacterial gavage, suspensions of 10^9 CFU/ml were obtained using a fluorescence spectrophotometer (Eppendorf) at an optical density of 1 measured at a wavelength of 600 nm. […]

naïve CD4+ T cells = test: Differentiation of naive CD4+ T cells into Th1 cells by DCs charged with HIEC-6 (IFNg ELISA); format: cell-based, human; conditions: DCs charged with allogeneic HIEC-6 pre-exposed to bacteria and/or OXA; 6 healthy volunteers
Experimental: CD14+ cells were isolated from PBMC obtained from healthy donors (Miltenyi Kit). Monocytes were differentiated into DCs by adding GM-CSF and IL-4 in the culture medium for 6 days. On day 6, immature DCs were harvested and charged with apoptotic intestinal epithelial cells.
For apoptotic IEC cells preparation, HIEC-6 cells (ATCC) were treated with bacteria 1 h, OXA 3 h, and ATB 1 h, and then left ON. The next morning, Apoptotic cells were harvested, washed 3× in PBS and added to the DC culture.
Naïve CD4 T cells were isolated from the matched donor for each experiment (Miltenyi kit) and added to the DC-IEC culture at a 10:1 ratio. The final co-culture was incubated for 6 days. On day 6, anti-CD3 and anti-CD28 mAb were added to the culture. After 24 h incubation supernatants were assayed for IFNg by ELISA (Biolegend).

Molecule	patient feces inducing complete resistance to OXA (avatar non-responders) (MC38 tumors)	patient feces resulting in antitumor efficacy of OXA comparable to SPF mice (avatar responders) (MC38 tumors)	apoptosis-associated cleavage of caspase-3 in vivo (ileal and colonic IEC)	ileal TH1/TFH immune tone (Tbx21, Bcl6, Il27, Gata3, Ahr expression) in response to OXA (ileal mucosae)	apoptosis of enteroids [1]	OXA+anti-PD-1 Ab-mediated anticancer effects against established MC38 cancers (MC38 cancers)	HIEC-6 rendered immunogenic (differentiation of T cells into Th1 cells, IFN-gamma) (naïve CD4+ T cells)
O=C1[O][Pt]2([NH][C@@H]3CCCC[C@H]3[NH]2)[O]C1=O [OXA, Oxaliplatin]	4	8/12	far more prominent in ileal than colonic IEC	decrease of the ileal TH1/TFH immune tone	triggered a dose-dependent apoptosis	–	–
Bacteroides fragilis	–	–	–	–	–	improved OXA+anti-PD-1 Ab-mediated anticancer effects	rendered immunogenic
